Measured values as given in ChEMBL document CHEMBL5465560, “Selectivity Literature for EUbOPEN Chemogenomic Library” (2024).

Tests used:
[1] = target: T1, Serine/threonine-protein kinase MAK (Homo sapiens) (UniProt P20794); assay: Selectivity interaction (KinomeScan (DiscoverX)) EUB0000229b MAK; details: at 10 µM
T1 sequence (whole entry): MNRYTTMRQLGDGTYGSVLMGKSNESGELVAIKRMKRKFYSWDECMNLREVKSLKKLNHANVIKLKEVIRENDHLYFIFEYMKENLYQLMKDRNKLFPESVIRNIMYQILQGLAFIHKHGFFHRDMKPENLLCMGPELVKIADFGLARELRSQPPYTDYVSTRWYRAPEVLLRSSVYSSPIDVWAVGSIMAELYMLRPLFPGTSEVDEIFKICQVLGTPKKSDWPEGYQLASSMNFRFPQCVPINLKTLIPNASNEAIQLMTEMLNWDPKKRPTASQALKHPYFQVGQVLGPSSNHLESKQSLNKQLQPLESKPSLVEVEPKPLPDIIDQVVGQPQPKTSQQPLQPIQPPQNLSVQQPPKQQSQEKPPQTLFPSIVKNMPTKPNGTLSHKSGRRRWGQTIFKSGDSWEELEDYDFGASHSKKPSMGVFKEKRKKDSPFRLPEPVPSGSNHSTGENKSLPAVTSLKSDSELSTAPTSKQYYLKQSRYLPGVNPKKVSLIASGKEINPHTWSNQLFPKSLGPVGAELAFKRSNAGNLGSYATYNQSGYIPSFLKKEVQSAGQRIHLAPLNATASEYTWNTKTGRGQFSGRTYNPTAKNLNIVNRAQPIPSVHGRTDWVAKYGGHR

[2] = target: T2, Serine/threonine-protein kinase Nek2 (Homo sapiens) (UniProt P51955); assay: Selectivity interaction (Kinase panel (Z-LYTE Assay)) EUB0001632a NEK2; details: at 10 µM
T2 sequence (whole entry): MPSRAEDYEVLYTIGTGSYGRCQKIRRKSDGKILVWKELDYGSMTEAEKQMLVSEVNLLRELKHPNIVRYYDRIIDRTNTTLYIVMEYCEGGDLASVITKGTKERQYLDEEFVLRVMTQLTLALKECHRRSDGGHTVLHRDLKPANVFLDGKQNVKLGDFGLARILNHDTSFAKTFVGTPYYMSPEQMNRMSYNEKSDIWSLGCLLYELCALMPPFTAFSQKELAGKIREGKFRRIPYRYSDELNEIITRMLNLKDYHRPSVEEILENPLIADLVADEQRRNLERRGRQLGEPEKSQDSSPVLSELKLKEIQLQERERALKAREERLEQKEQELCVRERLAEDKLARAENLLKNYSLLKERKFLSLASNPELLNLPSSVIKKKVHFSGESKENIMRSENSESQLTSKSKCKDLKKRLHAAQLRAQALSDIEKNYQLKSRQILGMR

[3] = target: Ribosomal protein S6 kinase alpha-5 (Homo sapiens) (UniProt O75582); assay: Selectivity interaction (KinomeScan (DiscoverX)) EUB0001049a RPS6KA5; details: at 1 µM
Sequence of Ribosomal protein S6 kinase alpha-5 (Homo sapiens) (O75582 whole entry, looked up): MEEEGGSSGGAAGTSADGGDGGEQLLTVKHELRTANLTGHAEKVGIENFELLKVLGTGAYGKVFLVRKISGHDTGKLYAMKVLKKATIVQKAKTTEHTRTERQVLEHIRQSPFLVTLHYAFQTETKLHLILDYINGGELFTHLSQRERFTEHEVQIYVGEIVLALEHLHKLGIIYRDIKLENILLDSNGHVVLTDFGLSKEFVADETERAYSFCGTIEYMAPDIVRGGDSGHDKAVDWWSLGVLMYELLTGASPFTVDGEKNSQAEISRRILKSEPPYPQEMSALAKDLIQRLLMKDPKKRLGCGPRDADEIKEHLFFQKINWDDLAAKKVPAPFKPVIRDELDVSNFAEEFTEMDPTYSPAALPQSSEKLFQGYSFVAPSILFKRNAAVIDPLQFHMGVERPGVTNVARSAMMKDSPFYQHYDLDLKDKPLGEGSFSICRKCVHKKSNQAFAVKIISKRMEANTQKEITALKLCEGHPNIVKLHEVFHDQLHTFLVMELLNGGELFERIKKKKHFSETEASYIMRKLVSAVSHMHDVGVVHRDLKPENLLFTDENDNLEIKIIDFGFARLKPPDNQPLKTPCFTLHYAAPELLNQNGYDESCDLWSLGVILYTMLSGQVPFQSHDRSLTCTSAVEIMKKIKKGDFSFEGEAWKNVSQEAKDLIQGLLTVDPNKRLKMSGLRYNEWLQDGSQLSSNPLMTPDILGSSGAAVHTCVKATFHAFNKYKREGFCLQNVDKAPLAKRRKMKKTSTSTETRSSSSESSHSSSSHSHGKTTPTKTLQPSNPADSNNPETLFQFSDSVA

[4] = target: Rho-associated protein kinase 1 (Homo sapiens) (UniProt Q13464); assay: Selectivity interaction (Upstate Kinase Profiler service (Millipore)) EUB0000056c ROCK1; details: at 1 µM
Sequence of Rho-associated protein kinase 1 (Homo sapiens) (Q13464 2-1354 limits assumed): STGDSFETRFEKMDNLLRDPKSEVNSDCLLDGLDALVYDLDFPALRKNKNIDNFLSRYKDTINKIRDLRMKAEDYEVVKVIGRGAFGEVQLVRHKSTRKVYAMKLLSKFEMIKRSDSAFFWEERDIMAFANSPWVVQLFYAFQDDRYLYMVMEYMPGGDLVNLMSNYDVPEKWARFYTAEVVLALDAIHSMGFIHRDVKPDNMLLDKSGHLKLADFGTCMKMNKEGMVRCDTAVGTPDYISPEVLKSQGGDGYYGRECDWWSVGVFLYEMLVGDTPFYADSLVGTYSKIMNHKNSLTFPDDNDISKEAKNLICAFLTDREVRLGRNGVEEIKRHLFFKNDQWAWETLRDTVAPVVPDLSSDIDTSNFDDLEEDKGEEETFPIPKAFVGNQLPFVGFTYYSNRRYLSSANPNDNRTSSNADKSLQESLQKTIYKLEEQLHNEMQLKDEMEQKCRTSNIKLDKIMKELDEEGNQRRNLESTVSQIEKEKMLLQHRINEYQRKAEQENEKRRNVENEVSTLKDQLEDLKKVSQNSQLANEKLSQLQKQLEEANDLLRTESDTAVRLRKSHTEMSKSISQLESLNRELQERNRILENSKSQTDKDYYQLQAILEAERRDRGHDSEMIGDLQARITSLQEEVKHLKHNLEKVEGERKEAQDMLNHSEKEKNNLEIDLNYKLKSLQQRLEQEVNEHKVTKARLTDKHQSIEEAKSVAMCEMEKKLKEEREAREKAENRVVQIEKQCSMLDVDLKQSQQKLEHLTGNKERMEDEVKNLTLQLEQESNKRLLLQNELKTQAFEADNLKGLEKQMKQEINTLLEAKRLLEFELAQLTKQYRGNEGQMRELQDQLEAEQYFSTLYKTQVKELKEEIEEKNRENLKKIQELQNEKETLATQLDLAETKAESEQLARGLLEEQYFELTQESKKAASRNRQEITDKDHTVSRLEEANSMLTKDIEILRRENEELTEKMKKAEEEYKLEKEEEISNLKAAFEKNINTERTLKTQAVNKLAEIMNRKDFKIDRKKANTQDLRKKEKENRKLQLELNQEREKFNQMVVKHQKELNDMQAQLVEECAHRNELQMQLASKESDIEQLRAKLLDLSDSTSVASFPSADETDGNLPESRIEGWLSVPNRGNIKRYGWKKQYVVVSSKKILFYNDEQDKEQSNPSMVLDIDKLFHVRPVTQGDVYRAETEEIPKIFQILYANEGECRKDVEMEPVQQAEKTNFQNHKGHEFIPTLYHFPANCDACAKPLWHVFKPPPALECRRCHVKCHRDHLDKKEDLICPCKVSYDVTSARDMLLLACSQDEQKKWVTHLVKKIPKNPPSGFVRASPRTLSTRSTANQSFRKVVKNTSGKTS

[5] = target: Phosphatidylinositol 4-phosphate 3-kinase C2 domain-containing subunit beta (Homo sapiens) (UniProt O00750); assay: Selectivity interaction (ProQinase) EUB0000171b PIK3C2B
Sequence of Phosphatidylinositol 4-phosphate 3-kinase C2 domain-containing subunit beta (Homo sapiens) (O00750 whole entry, the tested form may be a part): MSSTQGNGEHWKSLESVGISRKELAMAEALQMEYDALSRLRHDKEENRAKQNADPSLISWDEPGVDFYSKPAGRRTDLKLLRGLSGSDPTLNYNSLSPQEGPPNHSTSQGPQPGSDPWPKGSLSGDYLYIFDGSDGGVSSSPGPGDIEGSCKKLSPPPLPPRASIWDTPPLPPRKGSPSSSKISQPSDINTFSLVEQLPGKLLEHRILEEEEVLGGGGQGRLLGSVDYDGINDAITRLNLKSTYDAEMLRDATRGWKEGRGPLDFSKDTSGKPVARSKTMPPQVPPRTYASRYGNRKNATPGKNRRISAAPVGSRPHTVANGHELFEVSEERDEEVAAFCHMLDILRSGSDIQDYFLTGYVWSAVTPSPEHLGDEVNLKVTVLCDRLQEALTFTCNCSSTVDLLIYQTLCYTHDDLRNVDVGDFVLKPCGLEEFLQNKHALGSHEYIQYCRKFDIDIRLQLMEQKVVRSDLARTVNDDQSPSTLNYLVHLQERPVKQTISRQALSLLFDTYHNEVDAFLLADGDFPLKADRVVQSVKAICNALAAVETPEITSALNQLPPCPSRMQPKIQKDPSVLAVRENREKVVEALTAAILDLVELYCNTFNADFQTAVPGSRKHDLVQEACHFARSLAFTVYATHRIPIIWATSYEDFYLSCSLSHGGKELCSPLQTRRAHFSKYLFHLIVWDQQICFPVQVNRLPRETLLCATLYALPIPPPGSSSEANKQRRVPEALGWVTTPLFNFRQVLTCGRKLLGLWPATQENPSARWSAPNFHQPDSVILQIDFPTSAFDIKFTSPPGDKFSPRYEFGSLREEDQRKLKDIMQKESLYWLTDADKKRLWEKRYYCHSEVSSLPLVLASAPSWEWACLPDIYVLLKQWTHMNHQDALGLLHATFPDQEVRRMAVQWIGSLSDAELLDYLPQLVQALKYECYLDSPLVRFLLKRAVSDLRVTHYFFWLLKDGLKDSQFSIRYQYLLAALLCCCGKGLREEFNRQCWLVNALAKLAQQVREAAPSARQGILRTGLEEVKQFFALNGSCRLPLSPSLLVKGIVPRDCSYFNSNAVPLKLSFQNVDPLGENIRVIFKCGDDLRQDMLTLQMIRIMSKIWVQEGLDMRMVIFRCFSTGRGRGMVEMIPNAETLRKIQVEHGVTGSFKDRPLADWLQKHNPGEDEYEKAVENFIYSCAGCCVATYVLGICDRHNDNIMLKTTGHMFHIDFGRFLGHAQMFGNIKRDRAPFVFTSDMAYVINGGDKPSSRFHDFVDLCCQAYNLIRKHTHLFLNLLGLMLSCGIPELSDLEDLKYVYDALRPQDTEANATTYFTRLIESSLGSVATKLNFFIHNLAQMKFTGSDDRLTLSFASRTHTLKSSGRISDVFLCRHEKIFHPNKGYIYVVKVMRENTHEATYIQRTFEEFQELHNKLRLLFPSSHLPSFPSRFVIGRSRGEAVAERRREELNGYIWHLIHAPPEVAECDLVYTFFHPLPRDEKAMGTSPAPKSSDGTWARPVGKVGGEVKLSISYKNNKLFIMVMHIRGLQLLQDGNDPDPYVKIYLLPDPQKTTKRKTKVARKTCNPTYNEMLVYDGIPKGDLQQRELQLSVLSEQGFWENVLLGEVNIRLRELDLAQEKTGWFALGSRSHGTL

[6] = target: Ribosomal protein S6 kinase alpha-1 (Homo sapiens, UniProt Q15418); assay: Selectivity interaction (ActivX KiNativ screen (kinase selectivity in THP-1 cell lysates)) EUB0000639a RPS6KA1; format: subcellular; details: lysate, at 0.04 µM
Sequence of Ribosomal protein S6 kinase alpha-1 (Q15418 whole entry): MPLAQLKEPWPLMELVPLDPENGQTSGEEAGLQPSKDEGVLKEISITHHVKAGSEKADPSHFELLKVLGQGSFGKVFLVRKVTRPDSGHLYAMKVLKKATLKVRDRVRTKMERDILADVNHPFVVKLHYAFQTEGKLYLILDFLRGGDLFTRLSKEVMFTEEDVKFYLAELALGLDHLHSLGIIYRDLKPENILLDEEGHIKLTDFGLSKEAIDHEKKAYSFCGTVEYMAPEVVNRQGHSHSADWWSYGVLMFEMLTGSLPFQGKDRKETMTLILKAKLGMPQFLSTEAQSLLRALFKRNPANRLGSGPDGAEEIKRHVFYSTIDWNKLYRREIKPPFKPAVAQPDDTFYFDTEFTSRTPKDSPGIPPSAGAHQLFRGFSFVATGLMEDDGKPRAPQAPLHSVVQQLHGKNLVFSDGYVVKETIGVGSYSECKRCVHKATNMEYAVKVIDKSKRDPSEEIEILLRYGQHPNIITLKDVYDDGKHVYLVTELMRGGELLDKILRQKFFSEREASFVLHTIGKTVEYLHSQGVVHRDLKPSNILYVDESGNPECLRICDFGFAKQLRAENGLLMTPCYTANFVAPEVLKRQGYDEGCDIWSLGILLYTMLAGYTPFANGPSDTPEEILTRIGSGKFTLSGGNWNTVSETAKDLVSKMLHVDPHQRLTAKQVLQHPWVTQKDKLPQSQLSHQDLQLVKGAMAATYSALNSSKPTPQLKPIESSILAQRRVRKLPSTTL

[7] = tested on: Tyrosine-protein kinase ABL1 (Homo sapiens), P00519 [H396P]; assay: Selectivity interaction (KinomeScan (DiscoverX)) EUB0000655a ABL1; details: at 10 µM
[8] = target: T3, Ephrin type-A receptor 3 (Homo sapiens) (UniProt P29320); assay: Selectivity interaction (KinomeScan (DiscoverX)) EUB0000092b EPHA3; details: at 10 µM
T3 sequence (whole entry): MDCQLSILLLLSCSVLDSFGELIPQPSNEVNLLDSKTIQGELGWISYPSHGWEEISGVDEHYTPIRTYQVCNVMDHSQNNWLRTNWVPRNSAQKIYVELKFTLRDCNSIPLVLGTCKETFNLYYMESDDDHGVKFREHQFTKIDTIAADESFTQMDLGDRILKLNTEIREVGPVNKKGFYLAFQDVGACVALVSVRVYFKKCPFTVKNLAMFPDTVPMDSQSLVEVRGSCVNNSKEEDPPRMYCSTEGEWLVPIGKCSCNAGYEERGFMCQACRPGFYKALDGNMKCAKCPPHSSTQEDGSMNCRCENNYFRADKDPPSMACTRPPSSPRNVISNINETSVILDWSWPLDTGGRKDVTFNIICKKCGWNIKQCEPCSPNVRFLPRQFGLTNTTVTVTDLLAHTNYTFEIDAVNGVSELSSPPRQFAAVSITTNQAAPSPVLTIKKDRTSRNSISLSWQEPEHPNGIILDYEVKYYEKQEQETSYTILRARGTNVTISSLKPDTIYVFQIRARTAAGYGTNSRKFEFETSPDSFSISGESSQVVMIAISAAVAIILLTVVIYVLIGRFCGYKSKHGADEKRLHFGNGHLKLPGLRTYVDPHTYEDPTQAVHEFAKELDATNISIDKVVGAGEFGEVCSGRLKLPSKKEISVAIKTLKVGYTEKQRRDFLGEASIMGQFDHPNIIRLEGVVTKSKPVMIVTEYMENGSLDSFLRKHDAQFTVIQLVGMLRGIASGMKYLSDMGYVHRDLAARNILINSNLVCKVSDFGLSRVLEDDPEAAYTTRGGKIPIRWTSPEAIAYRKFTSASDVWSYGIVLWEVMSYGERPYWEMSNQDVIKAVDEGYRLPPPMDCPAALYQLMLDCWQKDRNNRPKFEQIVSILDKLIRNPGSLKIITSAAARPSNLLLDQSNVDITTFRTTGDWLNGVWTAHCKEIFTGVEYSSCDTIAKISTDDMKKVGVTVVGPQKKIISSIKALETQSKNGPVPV

[9] = target: Tyrosine-protein kinase Lyn (Homo sapiens, UniProt P07948); assay: Selectivity interaction (KinomeScan (DiscoverX)) EUB0000092b LYN; details: at 10 µM
Sequence of Tyrosine-protein kinase Lyn (P07948 2-512 limits assumed): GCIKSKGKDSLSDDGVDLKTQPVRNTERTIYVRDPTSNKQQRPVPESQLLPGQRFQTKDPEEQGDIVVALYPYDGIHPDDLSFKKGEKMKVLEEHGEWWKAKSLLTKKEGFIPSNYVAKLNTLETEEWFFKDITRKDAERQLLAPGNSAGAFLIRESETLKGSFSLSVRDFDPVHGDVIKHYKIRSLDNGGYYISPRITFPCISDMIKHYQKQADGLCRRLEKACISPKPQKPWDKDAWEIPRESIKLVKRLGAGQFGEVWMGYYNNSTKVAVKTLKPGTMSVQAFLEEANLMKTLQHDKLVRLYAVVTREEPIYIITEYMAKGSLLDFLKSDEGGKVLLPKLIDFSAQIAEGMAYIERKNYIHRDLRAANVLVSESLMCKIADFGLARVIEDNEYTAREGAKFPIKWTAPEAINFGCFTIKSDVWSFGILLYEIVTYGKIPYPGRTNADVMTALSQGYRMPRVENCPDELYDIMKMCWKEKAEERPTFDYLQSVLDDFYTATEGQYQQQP

With `COc1cc(N(C)c2ccnc3ccc(C(F)(F)F)cc23)cc(OC)c1OC` the % binding [1] was 79%.

Compound `Cn1cc(-n2cnc3c(NCc4nc5cc(Cl)c(Cl)cc5[nH]4)nc(N4CCOCC4)nc32)cn1` has a % of control [2] of 1.81%.

In the case of `COc1cc(Nc2nc(C)cc(-c3cnn4nc(OC)ccc34)n2)cc(C(F)(F)F)c1`, the % of control [3] is reported as 100%.

For `Cc1ccc(-c2ccc3c(ccc4sc5c(c43)NC[C@@H](C)NC5=O)n2)cn1`, the % of inhibition [4] was -13%.

Compound `C=CC(=O)Nc1cccc(C(=O)Nc2ccc(Nc3cc(-c4[nH]c(SC)nc4C)ccn3)cc2)c1` has a % of control ([5]; at 1 µM) of 132% and a % of control ([5]; at 5 µM) of 133%.

`CC[C@@H]1[C@H](F)C(=O)N[C@@H]1COc1nccc2cc(C(N)=O)c(OC)cc12` [ZIMLOVISERTIB] was tested, and the % of inhibition [6] was -6.2%.

For `CN(C)CCOc1ccc(-c2nc(-c3ccncc3)c(-c3ccc4c(c3)CC/C4=N\O)[nH]2)cc1`, the % of control [7] was 6.9%.

Compound `CCC(=O)N1CCN(c2ccc(-n3c(=O)ccc4cnc5ccc(-c6cnc7ccccc7c6)cc5c43)cc2C(F)(F)F)CC1` has a % of control [8] of 70% and a % of control [9] of 79%.
